{"source": "BindingDB's records for doi:10.1021/jm9800595", "about": "(Purdue University, 1998)", "data": [{"target": "T1, Gag-Pol polyprotein [588-1027]/[588-1147] (Human immunodeficiency virus 1, UniProt P04585)", "T1 construct": "588-1027; 588-1147", "assay": "HIV-1 RT Assay", "conditions": "pH 7.9", "units": {"IC50": "µM"}, "values": [{"smiles": "COC(=O)c1cc(C(=CC(=O)OC(C)(C)C)c2cc(Cl)c(OC)c(C(=O)OC)c2)cc(Cl)c1OC", "note": "[methyl 5-[3-(tert-butoxy)-1-[3-chloro-4-methoxy-5-(methoxycarbonyl)phenyl]-3-oxoprop-1-en-1-yl]-3-chloro-2-methoxybenzoate]", "IC50": "> 100"}, {"smiles": "COc1c(Cl)cc(C(=CCC(=O)O)c2cc(Cl)c(OC)c(C(=O)O)c2)cc1C(=O)O", "note": "[Alkenyldiarylmethane (ADAM) 27]", "IC50": "> 100"}, {"smiles": "COC(=O)c1cc(C(=CCCO)c2cc(Cl)c(OC)c(C(=O)OC)c2)cc(Cl)c1OC", "note": "[methyl 3-chloro-5-{1-[3-chloro-4-methoxy-5-(methoxycarbonyl)phenyl]-4-hydroxybut-1-en-1-yl}-2-methoxybenzoate]", "IC50": "> 100"}, {"smiles": "COC=C(c1cc(Br)c(OC)c(C(=O)OC)c1)c1cc(Br)c(OC)c(C(=O)OC)c1", "note": "[Alkenyldiarylmethane (ADAM) 5]", "IC50": "> 100"}, {"smiles": "COC(=O)c1cc(C(=CCCCC(=O)O)c2cc(Cl)c(OC)c(C(=O)OC)c2)cc(Cl)c1OC", "note": "[Alkenyldiarylmethane (ADAM) 25]", "IC50": "> 100"}, {"smiles": "COc1c(Cl)cc(C(=CCCCC(=O)O)c2cc(Cl)c(OC)c(C(=O)O)c2)cc1C(=O)O", "note": "[Alkenyldiarylmethane (ADAM) 26]", "IC50": "> 100"}, {"smiles": "CC1(C)OC(=O)c2cc(C(=CCCO)c3cc(Cl)c4c(c3)C(=O)OC(C)(C)O4)cc(Cl)c2O1", "note": "[8-chloro-6-[1-(8-chloro-2,2-dimethyl-4-oxo-2,4-dihydro-1,3-benzodioxin-6-yl)-4-hydroxybut-1-en-1-yl]-2,2-dimethyl-2,4-dihydro-1,3-benzodioxin-4-one]", "IC50": "> 100"}, {"smiles": "CC1(C)OC(=O)c2cc(C(=CCCBr)c3cc(Cl)c4c(c3)C(=O)OC(C)(C)O4)cc(Cl)c2O1", "note": "[6-[4-bromo-1-(8-chloro-2,2-dimethyl-4-oxo-2,4-dihydro-1,3-benzodioxin-6-yl)but-1-en-1-yl]-8-chloro-2,2-dimethyl-2,4-dihydro-1,3-benzodioxin-4-one]", "IC50": "> 100"}, {"smiles": "COC(=O)c1cc(C(=CC(=O)O)c2cc(Cl)c(OC)c(C(=O)OC)c2)cc(Cl)c1OC", "note": "[3,3-Dichloro-4,4-dimethoxy-5,5-bis(methoxycarbonyl)-3,3-diphenylpropenoic Acid]", "IC50": "> 100"}, {"smiles": "C=C(c1cc(Br)c(OC)c(C(=O)OC)c1)c1cc(Br)c(OC)c(C(=O)OC)c1", "note": "[methyl 3-bromo-5-{1-[3-bromo-4-methoxy-5-(methoxycarbonyl)phenyl]ethenyl}-2-methoxybenzoate]", "IC50": "> 100"}]}]}
